Assay results published in patent publication US20100280082A1, “Metabotropic Glutamate Receptor Oxadiazole Ligands and Their Use as Potentiators” (AstraZeneca AB, priority 2007, published 2010).

molecular target: hERG ion channel (Homo sapiens, UniProt Q12809); test: hERG activity (process of Bridgland-Taylor et al.); type: cell-based
Description: hERG activity was assessed using the process described by Bridgland-Taylor, M. H., et al, J. Pharm. Tox. Methods 54 (2006) 189-199.

hERG ion channel, sequence (Q12809 whole entry): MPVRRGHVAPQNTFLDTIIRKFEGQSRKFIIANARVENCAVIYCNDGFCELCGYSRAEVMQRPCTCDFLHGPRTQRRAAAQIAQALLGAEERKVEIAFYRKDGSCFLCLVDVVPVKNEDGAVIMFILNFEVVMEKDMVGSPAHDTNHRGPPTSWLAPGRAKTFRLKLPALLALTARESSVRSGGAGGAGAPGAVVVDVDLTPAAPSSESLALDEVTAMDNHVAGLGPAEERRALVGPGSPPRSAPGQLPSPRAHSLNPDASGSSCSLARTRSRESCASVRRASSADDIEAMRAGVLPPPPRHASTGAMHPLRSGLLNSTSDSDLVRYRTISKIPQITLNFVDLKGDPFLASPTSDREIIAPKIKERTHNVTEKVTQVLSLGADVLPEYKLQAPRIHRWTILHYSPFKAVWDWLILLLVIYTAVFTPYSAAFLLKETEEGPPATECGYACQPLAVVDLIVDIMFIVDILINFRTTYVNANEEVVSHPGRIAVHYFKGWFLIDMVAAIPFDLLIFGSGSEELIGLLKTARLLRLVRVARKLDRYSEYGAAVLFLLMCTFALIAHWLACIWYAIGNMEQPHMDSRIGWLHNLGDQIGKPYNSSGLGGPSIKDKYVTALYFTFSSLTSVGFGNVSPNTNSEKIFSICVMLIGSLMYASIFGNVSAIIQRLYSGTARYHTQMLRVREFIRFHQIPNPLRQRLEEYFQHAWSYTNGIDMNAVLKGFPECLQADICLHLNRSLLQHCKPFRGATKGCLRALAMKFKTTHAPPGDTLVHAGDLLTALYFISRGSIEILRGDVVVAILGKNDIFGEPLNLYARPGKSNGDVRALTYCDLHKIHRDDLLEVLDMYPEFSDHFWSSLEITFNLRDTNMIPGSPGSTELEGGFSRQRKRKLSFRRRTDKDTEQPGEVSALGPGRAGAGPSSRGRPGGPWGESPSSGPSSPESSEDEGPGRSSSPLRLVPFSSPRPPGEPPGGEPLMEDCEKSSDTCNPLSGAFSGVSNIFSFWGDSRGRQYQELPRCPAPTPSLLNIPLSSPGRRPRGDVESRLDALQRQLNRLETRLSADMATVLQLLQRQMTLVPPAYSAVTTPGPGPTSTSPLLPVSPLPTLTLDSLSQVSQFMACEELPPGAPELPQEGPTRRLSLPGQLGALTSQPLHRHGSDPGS

| SMILES | hERG [µM] |
| --- | --- |
| O=C1c2c(Cl)cc(-c3noc(CN4CCNCC4)n3)cc2CN1Cc1ccc(OC(F)(F)F)cc1 [Example 1, 7-Chloro-5-(5-piperazin-1-ylmethyl-[1,2,4]oxadiazol-3-yl)-2-(4-trifluoromethoxybenzyl)-2,3-dihydroisoindol-1-one] | 10 |
| O=C1c2c(Cl)cc(-c3noc(CN4CCNCC4)n3)cc2CN1Cc1ccc(Cl)cc1 [Example 2, 7-chloro-2-(4-chlorobenzyl)-5-(5-piperazin-1-ylmethyl-[1,2,4]oxadiazol-3-yl)-2,3-dihydroisoindol-1-one] | 14 |
| Cc1cc(-c2noc(CN3CCNCC3)n2)cc2c1C(=O)N(Cc1ccc(OC(F)(F)F)cc1)C2 [Example 3, 7-methyl-5-(5-piperazin-1-ylmethyl-[1,2,4]oxadiazol-3-yl)-2-(4-trifluoromethoxy-benzyl)-2,3-dihydroisoindol-1-one] | 13 |
| Cc1cc(-c2noc(CN3CCNCC3)n2)cc2c1C(=O)N(Cc1ccc(Cl)cc1)C2 [Example 4, 2-(4-chlorobenzyl)-7-methyl-5-(5-piperazin-1-ylmethyl-[1,2,4]oxadiazol-3-yl)-2,3-dihydroisoindol-1-one] | 8.9 |
| Cc1cc(-c2noc(CN3C[C@@H]4C[C@H]3CN4)n2)cc2c1C(=O)N(Cc1ccc(OC(F)(F)F)cc1)C2 [Example 5, 5-[5-(2,5-diaza-bicyclo[2.2.1]hept-2-ylmethyl)-[1,2,4]oxadiazol-3-yl]-7-methyl-2-(4-trifluoromethoxybenzyl)-2,3-dihydroisoindol-1-one] | 17 |
| Cc1cc(-c2noc(CN3CCNCC3)n2)cc2c1C(=O)N([C@@H](C)c1ccc(Cl)cc1)C2 [Example 6, 2-[(S)-1-(4-Chloro-phenyl)-ethyl]-7-methyl-5-(5-piperazin-1-ylmethyl-[1,2,4]oxadiazol-3-yl)-2,3-dihydro-isoindol-1-one] | 14 |
| Cc1cc(-c2noc(CN3C[C@@H]4C[C@H]3CN4)n2)cc2c1C(=O)N([C@@H](C)c1ccc(Cl)cc1)C2 [Example 7, 2-[(S)-1-(4-Chloro-phenyl)-ethyl]-5-{5-[(1S,4S)-1-(2,5-diaza-bicyclo[2.2.1]hept-2-yl)methyl]-[1,2,4]oxadiazol-3-yl}-7-methyl-2,3-dihydro-isoindol-1-one] | 12 |
| Cc1cc(-c2noc(CN3CCNC[C@H]3C)n2)cc2c1C(=O)N(Cc1ccc(Cl)cc1)C2 [Example 8, 2-(4-chloro-benzyl)-7-methyl-5-[5-(2-methyl-piperazin-1-ylmethyl)-[1,2,4]oxadiazol-3-yl]-2,3-dihydroisoindol-1-one] | 11 |
| Cc1cc(-c2noc(CN3CCNC[C@@H]3C)n2)cc2c1C(=O)N(Cc1ccc(Cl)cc1)C2 [Example 9, 2-(4-chloro-benzyl)-7-methyl-5-[5-(2-methyl-piperazin-1-ylmethyl)-[1,2,4]oxadiazol-3-yl]-2,3-dihydroisoindol-1-one] | 11 |
| Cc1cc(-c2noc(CN3CCNC(C)C3)n2)cc2c1C(=O)N(Cc1ccc(Cl)cc1)C2 (centres unmarked) [Example 10, 2-(4-chloro-benzyl)-7-methyl-5-[5-(3-methyl-piperazin-1-ylmethyl)-[1,2,4]oxadiazol-3-yl]-2,3-dihydroisoindol-1-one] | 11 |
| CC1(C)CN(Cc2nc(-c3cc(Cl)c4c(c3)CN(Cc3ccc(OC(F)(F)F)cc3)C4=O)no2)CCN1 [Example 11, 7-chloro-5-[5-(3,3-dimethyl-piperazin-1-ylmethyl)-[1,2,4]oxadiazol-3-yl]-2-(4-trifluoromethoxy-benzyl)-2,3-dihydroisoindol-1-one] | 13 |
| Cc1cc(-c2noc(C(C)N3CCNCC3)n2)cc2c1C(=O)N(Cc1ccc(OC(F)(F)F)cc1)C2 (centres unmarked) [Example 12, 7-Methyl-5-[5-(1-piperazin-1-yl-ethyl)-[1,2,4]oxadiazol-3-yl]-2-(4-trifluoromethoxy-benzyl)-2,3-dihydro-isoindol-1-one] | 17 |
| Cc1cc(-c2noc(C(C)N3CCNCC3)n2)cc2c1C(=O)N(Cc1ccc(Cl)cc1)C2 (centres unmarked) [Example 13, 2-(4-Chloro-benzyl)-7-methyl-5-[5-(1-piperazin-1-yl-ethyl)-[1,2,4]oxadiazol-3-yl]-2,3-dihydro-isoindol-1-one] | 13 |
| Cc1cc(-c2noc(C(C)N3CCNCC3)n2)cc2c1C(=O)N([C@@H](C)c1ccc(Cl)cc1)C2 (stereo partly drawn) [Example 14, 2-[(S)-1-(4-Chloro-phenyl)-ethyl]-7-methyl-5-[5-(1-piperazin-1-yl-ethyl)-[1,2,4]oxadiazol-3-yl]-2,3-dihydro-isoindol-1-one] | 11 |
